This note sets out measurements from patent US8470814B2, “Diazepinedione derivative” (Nippon Chemiphar Co., Ltd., priority 2009, dated 2013).

The test addresses T1, human P2X4 receptors (Homo sapiens, UniProt Q99571).
T1 construct: expressed in transfected cells
T1 sequence (Q99571 1-388): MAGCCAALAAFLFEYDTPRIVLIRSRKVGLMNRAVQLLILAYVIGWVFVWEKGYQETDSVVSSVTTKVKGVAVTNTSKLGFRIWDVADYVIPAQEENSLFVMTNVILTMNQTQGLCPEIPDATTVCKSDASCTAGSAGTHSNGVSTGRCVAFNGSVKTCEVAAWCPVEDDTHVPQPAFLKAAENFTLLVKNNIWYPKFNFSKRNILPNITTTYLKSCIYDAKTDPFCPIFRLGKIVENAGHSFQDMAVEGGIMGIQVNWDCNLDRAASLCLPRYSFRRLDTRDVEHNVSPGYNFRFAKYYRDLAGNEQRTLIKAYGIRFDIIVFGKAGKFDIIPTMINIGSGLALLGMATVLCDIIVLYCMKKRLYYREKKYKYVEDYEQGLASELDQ
In words: calcium influx assay (Fura-2, ATP-induced Ca2+ response) for P2X4 receptor antagonism. The test is classed as cell-based. To be noted: 1321N1 cells stably expressing human P2X4 receptors; 1 μM ATP; compound treated 15 min before ATP; fluorescence ratio F340/F380. The procedure: (§1) 1321N1 cells stably expressing human P2X4 receptors were adopted for calcium influx assay. P2X4/1321N1 cells were plated in 96-well assay plate and cultured 24 hours in an atmosphere of 5% CO2 at 37° C. Fura-2 AM calcium indicator dissolved in an extracellular solution for calcium imaging was loaded onto cells for 45 minutes at room temperature. […] The cells were alternatively illuminated with two excitations wavelengths (340 nm and 380 nm) via xenon lamp and the emitted fluorescence was measured at 510 nm. The fluorescence changes after the treatment of 1 μM ATP were monitored and determined the fluorescence ratio (F340/F380) as the index of intracellular calcium change. Tested compounds were treated to cells 15 min before the addition of ATP and the inhibition activities of compounds were calculated by comparing the Ca^2+ response with control in the absence of tested compound.
P2X4 receptor antagonism of the compound of the present invention was measured as described below.
as §1, with “change.” for “change. Tested compounds were treated to cells 15 min before the addition of ATP and the inhibition activities of compounds were calculated by comparing the Ca^2+ response with control in the absence of tested compound.”

Counter-ions that a name gives are not always drawn.

A word on the IC50: it is the concentration that gives 50% inhibition. With `O=C1CC(=O)N(c2cccc(-c3cn[nH]c3)c2)c2ccc3ccccc3c2N1` [Example 16, 5-[3-(1H-Pyrazol-4-yl)phenyl]-1H-naphtho[1,2-b][1,4]diazepin-2,4(3H,5H)-dione], the IC50 was determined as 3.6 µM.

As to `O=C1CC(=O)N(c2ccc(-c3nnn[nH]3)cc2)c2ccc3ccccc3c2N1` [Example 4, 5-[4-(1H-Tetrazol-5-yl)phenyl]-1H-naphtho[1,2-b][1,4]diazepin-2,4(3H,5H)-dione sodium salt], the IC50 amounted to 0.75 µM.

Regarding `O=C1CC(=O)N(c2cccc(-c3ncco3)c2)c2ccc3ccccc3c2N1` [Example 15, 5-[3-(Oxazol-2-yl)phenyl]-1H-naphtho[1,2-b][1,4]diazepin-2,4(3H,5H)-dione], the IC50 is 4.2 µM.
